Results reported in patent US9840513B2 (AbbVie S.à.r.l., priority 2015, dated 2017).

Molecular target: T1, F508delCFTR cell surface expression in CFBE41o-F508delCFTR-HRP cells (Homo sapiens, UniProt P13569, DEL508-508)
T1 construct: fused on or other part: Horseradish peroxidase (HRP) reporter inserted in the fourth exofacial (extracellular) loop of CFTR; expression is doxycycline-inducible
Assay: Cell Surface Expression-Horse Radish Peroxidase (CSE-HRP) Assay
Assay type: cell-based
Conditions: for EC50: CFBE41o-F508delCFTR-HRP cells, 18-24 hours at 33° C., 8-point curve, highest concentration 20 μM; for Maximum % activity (%): maximum at any tested concentration, normalized to on-plate positive control (3 μM)
Source text: Cell Surface Expression-Horse Radish Peroxidase (CSE-HRP) Assay:
A cellular assay for measuring the F508delCFTR cell surface expression after correction with test compounds was developed in human lung derived epithelial cell line (CFBE41o-) (Veit G et al, (2012) Mol Biol Cell. 23(21): 4188-4202). This was achieved by expressing the F508delCFTR mutation along with a horseradish peroxidase (HRP) in the fourth exofacial loop and then measuring the HRP activity using luminescence readout from these cells, CFBE41o-F508delCFTR-HRP, that were incubated overnight with the test corrector compounds. Briefly, for this primary assay, the CFBE41o-F508delCFTR-HRP cells were plated in 384-well plates (Greiner Bio-one; Cat 781080) at 4,000 cells/well along with 0.5 μg/mL doxycycline to induce the F508delCFTR-HRP expression and further incubated at 37° C., 5% CO2 for 72 hours. The test compounds were then added at the required concentrations and further incubated for 18-24 hours at 33° C. The highest concentration tested was 20 μM with an 8-point concentration response curve using a 3-fold dilution. Three replicate plates were run to determine one EC50. All plates contained negative controls (dimethyl sulfoxide, DMSO) and positive controls (3 μM of 3-[(2R,4R)-4-({[1-(2,2-difluoro-1,3-benzodioxol-5-yl)cyclopropyl]carbonyl}amino)-7-methoxy-3,4-dihydro-2H-chromen-2-yl]benzoic acid) as well as on-plate concentration response of the positive control. Post incubation, the plates were washed 5× times with Dulbecco's phosphate buffered saline (DPBS), followed by the addition of the HRP substrate, luminol (50 μL), and measuring the HRP activity using luminescence readout on EnVision® Multilabel Plate Reader (Perkin Elmer; product number 2104-0010). The raw counts from the experiment are analyzed using Accelrys® Assay Explorer v3.3.
Z′ greater than 0.5 was used as passing quality control criteria for the plates.
The Z′ is defined as: 1−[3*SDPositive Control+3*SDNegative Control/Absolute(MeanPositive Control−MeanNegative Control)] wherein “SD” is standard deviation.
The % activity measured at each of the 8 test concentrations of the test compound was normalized to the on-plate positive control using the following formula: % activity=[(test compound response DMSO response)/(positive control response DMSO response)]*100
The maximum % activity achieved for the test compound at any tested concentration is presented in Table 1 along with the EC50 calculated using the following general sigmoidal curve with variable Hill slope equation (described as Model 42 in the Accelrys® Assay Explorer v3.3 software): y=(a−d)/(1+(x/c)^b)+d
General sigmoidal curve with concentration, response, top, bottom, EC50 and Hill slope.
This model describes a sigmoidal curve with an adjustable baseline, a. The equation can be used to fit curves where response is either increasing or decreasing with respect to the independent variable, “x”.
“x” is a concentration of drug under test.
“a” is the maximum response, and “d” is the minimum response
“c” is the inflection point (EC50) for the curve. That is, “y” is halfway between the lower and upper asymptotes when x=c.
“b” is the slope-factor or Hill coefficient. The sign of b is positive when the response increases with increasing dose and is negative when the response decreases with increasing dose (inhibition).

T1 sequence (P13569 with tags, fused parts or gaps DEL508-508 limits assumed): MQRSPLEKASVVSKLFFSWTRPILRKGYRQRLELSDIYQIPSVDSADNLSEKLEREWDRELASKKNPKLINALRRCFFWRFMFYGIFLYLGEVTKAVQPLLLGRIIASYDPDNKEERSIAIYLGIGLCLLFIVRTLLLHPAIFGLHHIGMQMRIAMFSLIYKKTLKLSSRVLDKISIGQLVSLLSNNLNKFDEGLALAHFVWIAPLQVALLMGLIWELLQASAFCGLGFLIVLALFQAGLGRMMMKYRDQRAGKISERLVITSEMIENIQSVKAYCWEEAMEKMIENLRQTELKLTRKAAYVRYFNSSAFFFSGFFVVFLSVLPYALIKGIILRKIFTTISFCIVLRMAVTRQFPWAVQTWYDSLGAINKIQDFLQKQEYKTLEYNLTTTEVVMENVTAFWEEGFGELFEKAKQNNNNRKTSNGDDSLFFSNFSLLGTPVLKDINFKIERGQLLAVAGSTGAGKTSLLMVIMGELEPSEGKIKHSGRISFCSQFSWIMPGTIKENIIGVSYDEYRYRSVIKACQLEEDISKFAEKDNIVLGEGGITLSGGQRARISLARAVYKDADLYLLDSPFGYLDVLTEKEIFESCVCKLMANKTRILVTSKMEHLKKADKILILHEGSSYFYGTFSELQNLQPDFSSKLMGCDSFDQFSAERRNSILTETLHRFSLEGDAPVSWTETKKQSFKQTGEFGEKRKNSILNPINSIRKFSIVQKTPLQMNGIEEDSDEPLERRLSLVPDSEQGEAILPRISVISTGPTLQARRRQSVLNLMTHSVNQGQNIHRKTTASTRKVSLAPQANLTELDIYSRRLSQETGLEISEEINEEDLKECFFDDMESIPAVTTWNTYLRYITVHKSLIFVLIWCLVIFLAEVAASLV
T1 sequence (P13569 919-1480 limits assumed, stated change not applied): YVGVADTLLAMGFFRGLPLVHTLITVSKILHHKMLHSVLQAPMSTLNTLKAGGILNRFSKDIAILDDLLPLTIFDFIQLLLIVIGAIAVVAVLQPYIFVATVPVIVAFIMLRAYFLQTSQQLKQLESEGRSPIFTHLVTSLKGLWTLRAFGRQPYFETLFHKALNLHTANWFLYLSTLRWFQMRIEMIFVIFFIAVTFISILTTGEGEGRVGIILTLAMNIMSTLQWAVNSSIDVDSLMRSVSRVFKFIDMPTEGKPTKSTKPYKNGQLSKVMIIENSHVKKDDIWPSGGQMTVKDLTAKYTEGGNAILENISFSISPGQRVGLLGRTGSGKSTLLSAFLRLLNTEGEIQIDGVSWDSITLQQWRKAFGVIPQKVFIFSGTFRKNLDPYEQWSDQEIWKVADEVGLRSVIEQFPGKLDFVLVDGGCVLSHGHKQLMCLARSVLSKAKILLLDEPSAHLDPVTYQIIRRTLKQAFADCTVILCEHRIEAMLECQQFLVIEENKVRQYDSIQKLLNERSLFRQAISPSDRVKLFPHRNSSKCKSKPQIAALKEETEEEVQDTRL

| SMILES | EC50 | Maximum % activity (%) |
| --- | --- | --- |
| COC(=O)c1cccc([C@H]2C[C@@H](NC(=O)C3(C)CCc4cc5c(cc43)OC(F)(F)O5)c3ccc(OC)cc3O2)c1 (stereo partly drawn) [Example 52, methyl 3-{(2R,4R)-4-[(2,2-difluoro-5-methyl-6,7-dihydro-2H,5H-indeno[5,6-d][1,3]dioxole-5-carbonyl)amino]-7-methoxy-3,4-dihydro-2H-1-benzopyran-2-yl}benzoate] | 0.96 µM | 77% |
| CC1(C(=O)Nc2nnc(-c3ccc(C(=O)O)cc3)s2)COc2cc3c(cc21)OC(F)(F)O3 (stereo not drawn) [Example 53, 4-{5-[(2,2-difluoro-7-methyl-6,7-dihydro-2H-furo[2,3-f][1,3]benzodioxole-7-carbonyl)amino]-1,3,4-thiadiazol-2-yl}benzoic acid] | > 20 µM | 1% |
| CC1(C(=O)Nc2cccc(-c3ccccc3)c2)COc2cc3c(cc21)OC(F)(F)O3 (stereo not drawn) [Example 54, N-([1,1′-biphenyl]-3-yl)-2,2-difluoro-7-methyl-6,7-dihydro-2H-furo[2,3-f][1,3]benzodioxole-7-carboxamide] | 6.45 µM | 151% |
| CC1(C(=O)Nc2cccc(-c3ccccc3)n2)COc2cc3c(cc21)OC(F)(F)O3 (stereo not drawn) [Example 55, 2,2-difluoro-7-methyl-N-(6-phenylpyridin-2-yl)-6,7-dihydro-2H-furo[2,3-f][1,3]benzodioxole-7-carboxamide] | 6.62 µM | 159% |
| C[C@]1(C(=O)N[C@@H]2C[C@H](c3ccc(C(=O)O)cc3)Oc3ccccc32)CCc2cc3c(cc21)OC(F)(F)O3 [Example 59, 4-[(2R,4R)-4-{[(5S)-2,2-difluoro-5-methyl-6,7-dihydro-211,51-indeno[5,6-d][1,3]dioxole-5-carbonyl]amino}-3,4-dihydro-2H-1-benzopyran-2-yl]benzoic acid] | 2.75 µM | 50% |
| Cc1ccc(NC(=O)C2(C)COc3cc4c(cc32)OC(F)(F)O4)cc1-c1cccc(C(=O)O)c1 (stereo not drawn) [Example 60, 5′-[(2,2-difluoro-7-methyl-6,7-dihydro-2H-furo[2,3-f][1,3]benzodioxole-7-carbonyl)amino]-2′-methyl[1,1′-biphenyl]-3-carboxylic acid] | 0.63 µM | 152% |
| CC1(C(=O)Nc2ccc(N3CC(C(=O)O)C3)cc2)COc2cc3c(cc21)OC(F)(F)O3 (stereo not drawn) [Example 61, 1-{4-[(2,2-difluoro-7-methyl-6,7-dihydro-2H-furo[2,3-f][1,3]benzodioxole-7-carbonyl)amino]phenyl}azetidine-3-carboxylic acid] | > 20 µM | 8% |
| Cc1c(C(=O)O)ncn1-c1ccc(C(F)(F)F)cc1NC(=O)C1(C)COc2cc3c(cc21)OC(F)(F)O3 (stereo not drawn) [Example 62, 1-{2-[(2,2-difluoro-7-methyl-6,7-dihydro-2H-furo[2,3-f][1,3]benzodioxole-7-carbonyl)amino]-4-(trifluoromethyl)phenyl}-5-methyl-1H-imidazole-4-carboxylic acid] | > 20 µM | 12% |
| CC1(C(=O)Nc2nc(-c3ccc(C#N)cc3)cs2)COc2cc3c(cc21)OC(F)(F)O3 (stereo not drawn) [Example 63, N-[4-(4-cyanophenyl)-1,3-thiazol-2-yl]-2,2-difluoro-7-methyl-6,7-dihydro-2H-furo[2,3-f][1,3]benzodioxole-7-carboxamide] | 8.64 µM | 41% |
| COC(=O)c1ccc(-c2csc(NC(=O)C3(C)COc4cc5c(cc43)OC(F)(F)O5)n2)cc1 (stereo not drawn) [Example 64, methyl 4-{2-[(2,2-difluoro-7-methyl-6,7-dihydro-2H-furo[2,3-f][1,3]benzodioxole-7-carbonyl)amino]-1,3-thiazol-4-yl}benzoate] | 7.29 µM | 46% |
| CC1(C(=O)Nc2cccc(C(=O)NC[C@@H](O)CO)n2)COc2cc3c(cc21)OC(F)(F)O3 (stereo partly drawn) [Example 65, 6-[(2,2-difluoro-7-methyl-6,7-dihydro-2H-furo[2,3-f][1,3]benzodioxole-7-carbonyl)amino]-N-[(2R)-2,3-dihydroxypropyl]pyridine-2-carboxamide] | > 20 µM | 1% |
| COC(=O)c1ccc(-c2cccc(NC(=O)C3(C)COc4cc5c(cc43)OC(F)(F)O5)c2)cc1 (stereo not drawn) [Example 66, methyl 3′-[(2,2-difluoro-7-methyl-6,7-dihydro-2H-furo[2,3-f][1,3]benzodioxole-7-carbonyl)amino][1,1′-biphenyl]-4-carboxylate] | 4.11 µM | 160% |
| CC1(C(=O)Nc2cccc(F)n2)COc2cc3c(cc21)OC(F)(F)O3 (stereo not drawn) [Example 67, 2,2-difluoro-N-(6-fluoropyridin-2-yl)-7-methyl-6,7-dihydro-2H-furo[2,3-f][1,3]benzodioxole-7-carboxamide] | 8.39 µM | 70% |
| CC1(C(=O)Nc2nc(-c3ccc(C(=O)O)cc3)cs2)COc2cc3c(cc21)OC(F)(F)O3 (stereo not drawn) [Example 68, 4-{2-[(2,2-difluoro-7-methyl-6,7-dihydro-2H-furo[2,3-f][1,3]benzodioxole-7-carbonyl)amino]-1,3-thiazol-4-yl}benzoic acid] | 4.47 µM | 44% |
| CC1(C(=O)Nc2cccc(-c3ccc(C(=O)O)cc3)c2)COc2cc3c(cc21)OC(F)(F)O3 (stereo not drawn) [Example 69, 3′-[(2,2-difluoro-7-methyl-6,7-dihydro-2H-furo[2,3-f][1,3]benzodioxole-7-carbonyl)amino][1,1′-biphenyl]-4-carboxylic acid] | 1.39 µM | 183% |
| COC(=O)C1CCN(c2cccc(NC(=O)C3(C)COc4cc5c(cc43)OC(F)(F)O5)n2)CC1 (stereo not drawn) [Example 70, methyl 1-{6-[(2,2-difluoro-7-methyl-6,7-dihydro-2H-furo[2,3-f][1,3]benzodioxole-7-carbonyl)amino]pyridin-2-yl}piperidine-4-carboxylate] | 1.3 µM | 116% |
| CC1(C(=O)Nc2cccc(N3CCC(C(=O)O)CC3)n2)COc2cc3c(cc21)OC(F)(F)O3 (stereo not drawn) [Example 71, 1-{6-[(2,2-difluoro-7-methyl-6,7-dihydro-2H-furo[2,3-f][1,3]benzodioxole-7-carbonyl)amino]pyridin-2-yl}piperidine-4-carboxylic acid] | 1.23 µM | 128% |
| C[C@]1(C(=O)Nc2ccc(N3CCC(O)C3)nc2)COc2cc3c(cc21)OC(F)(F)O3 (stereo partly drawn) [Example 72, (7R)-2,2-difluoro-N-[6-(3-hydroxypyrrolidin-1-yl)pyridin-3-yl]-7-methyl-6,7-dihydro-2H-furo[2,3-f][1,3]benzodioxole-7-carboxamide] | 9.2 µM | 28% |
| C[C@]1(C(=O)Nc2cccc(-c3cccc(C(=O)O)c3)n2)COc2cc3c(cc21)OC(F)(F)O3 [Example 73, 3-(6-{[(7R)-2,2-difluoro-7-methyl-6,7-dihydro-2H-furo[2,3-f][1,3]benzodioxole-7-carbonyl]amino}pyridin-2-yl)benzoic acid] | 2.65 µM | 117% |
| Cc1ccc(NC(=O)C2(C)COc3cc4c(cc32)OC(F)(F)O4)nc1-c1cccc(C(N)=O)c1 (stereo not drawn) [Example 74, N-[6-(3-carbamoylphenyl)-5-methylpyridin-2-yl]-2,2-difluoro-7-methyl-6,7-dihydro-2H-furo[2,3-f][1,3]benzodioxole-7-carboxamide] | 0.7 µM | 105% |
| Cc1ccc(NC(=O)C2(C)COc3cc4c(cc32)OC(F)(F)O4)nc1-c1cccc(C(=O)N(C)C)c1 (stereo not drawn) [Example 75, N-{6-[3-(dimethylcarbamoyl)phenyl]-5-methylpyridin-2-yl}-2,2-difluoro-7-methyl-6,7-dihydro-2H-furo[2,3-f][1,3]benzodioxole-7-carboxamide] | 1.73 µM | 94% |
